Measured values published in PubChem BioAssay AID1964 (Broad Institute, 2009).
Records with an inconclusive call do not appear. Activity calls are given as the source filed them. How the calls were made is not given here.

Target: RNA-binding protein pos-1 (Caenorhabditis elegans) (UniProt G5EF15)
Test: inhibitors of POS-1/mex-3 RNA binding, dose response, biochemical, fluorescence polarization (AID 1964)
Conditions: POS-1/mex-3 RNA fluorescence polarization

Chain of RNA-binding protein pos-1 (Caenorhabditis elegans) (G5EF15 whole entry, looked up): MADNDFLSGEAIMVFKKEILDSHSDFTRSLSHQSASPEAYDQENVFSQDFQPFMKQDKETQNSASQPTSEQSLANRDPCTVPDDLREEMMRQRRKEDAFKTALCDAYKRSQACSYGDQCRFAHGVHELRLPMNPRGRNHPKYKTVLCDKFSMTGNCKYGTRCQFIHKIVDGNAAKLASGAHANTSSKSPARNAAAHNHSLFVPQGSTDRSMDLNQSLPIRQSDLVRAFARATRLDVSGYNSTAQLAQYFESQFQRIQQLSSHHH

| Compound | IC50 |
| --- | --- |
| C[C@H]1c2cccc(O)c2C(O)=C2C(=O)[C@]3(O)C(O)=C(C(N)=O)C(=O)[C@@H](N(C)C)C3[C@@H](O)C21 (stereo not given in full) | > 30 µM (inactive) |
| Cc1cc(/C=C2/C(=O)NC(=O)N(Cc3ccco3)C2=O)c(C)n1-c1ccc(C(=O)O)cc1 | > 30 µM (inactive) |
| C[C@H]1c2cccc(O)c2C(O)=C2C(=O)[C@]3(O)C(O)=C(C(N)=O)C(=O)[C@@H](N(C)C)[C@@H]3[C@@H](O)[C@@H]21 | > 30 µM (inactive) |
| CCC(C)/C=C(C)/C=C/C1=CC2=C(Cl)C(=O)C(C)(OC(C)=O)C(=O)C2=CO1 (stereo not given) | > 30 µM (inactive) |
| Cc1cc(/C=C2\C(=O)NC(=O)N(Cc3ccco3)C2=O)c(C)n1-c1ccc(C(=O)O)cc1 | > 30 µM (inactive) |
